Assay results published in patent US7531646B2, “β-D-ribosidase activity indicators with a chromogenic substrate” (priority 2001, dated 2009).
Structures can show the parent of a compound that is named as a salt.

Assays:
Format in all cases: cell-based
Shigella dysenteriae = assay: Substrate hydrolysis on Columbia agar; conditions: 300 mg/l, 18 hours
Hafnia alvei = assay: Substrate hydrolysis on Columbia agar; conditions: 300 mg/l, 18 hours
C. freundii = assay: Substrate hydrolysis on Columbia agar; conditions: 300 mg/l, 18 hours
Aeromonas caviae = assay: Substrate hydrolysis on Columbia agar; design: key to the marks not given beside the values; conditions: Aeromonas caviae NCTC 10852; 300 mg/l; 18 hours
Salmonella orthmarchen = assay: Substrate hydrolysis on Columbia agar; conditions: Salmonella orthmarchen SAX 59; 300 mg/l; 18 hours
Y. enterocolitica = assay: Substrate hydrolysis on Columbia agar; conditions: 300 mg/l, 18 hours
A. lwoffii = assay: Substrate hydrolysis on Columbia agar; conditions: A. lwoffii ATCC 15309; 300 mg/l; 18 hours
P. penneri = assay: Substrate hydrolysis on Columbia agar; conditions: P. penneri PPE 1; 300 mg/l; 18 hours
Vibrio parahaemolyticus = assay: Substrate hydrolysis on Columbia agar; conditions: 300 mg/l, 18 hours
Vibrio furnissii = assay: Substrate hydrolysis on Columbia agar; conditions: Vibrio furnissii NCTC 11218; 300 mg/l; 18 hours
Vibrio hollisae = assay: Substrate hydrolysis on Columbia agar; conditions: Vibrio hollisae NCTC 11640; 300 mg/l; 18 hours
Vibrio cincinnatiensis = assay: Substrate hydrolysis on Columbia agar; conditions: Vibrio cincinnatiensis NCTC 12012; 300 mg/l; 18 hours
Vibrio harveyi = assay: Substrate hydrolysis on Columbia agar; conditions: Vibrio harveyi NCTC 11346; 300 mg/l; 18 hours
Vibrio vulnificus = assay: Substrate hydrolysis on Columbia agar; conditions: 300 mg/l, 18 hours
Shigella sonnei = assay: Substrate hydrolysis on Columbia agar; conditions: 300 mg/l, 18 hours
Excerpt: (§1) This was achieved using a densitometer.
(§2) The same method was used as in Example 1.

Vibrio mimicus = assay: Substrate hydrolysis on Columbia agar; conditions: Vibrio mimicus NCTC 11435; 300 mg/l; 18 hours
Excerpt: as §1, §2

Vibrio alcaligenes = assay: Substrate hydrolysis on Columbia agar; conditions: Vibrio alcaligenes NCTC 12160; 300 mg/l; 18 hours
Streptococcus sanguis = assay: Substrate hydrolysis on Columbia agar; conditions: Streptococcus sanguis NCTC 7863; 300 mg/l; 18 hours
[1] = test system: Streptococcus constellatus; assay: Substrate hydrolysis on Columbia agar; conditions: Streptococcus constellatus NCTC 11325; 300 mg/l; 18 hours
Streptococcus mitis = assay: Substrate hydrolysis on Columbia agar; conditions: Streptococcus mitis NCTC 12261; 300 mg/l; 18 hours
Streptococcus crista = assay: Substrate hydrolysis on Columbia agar; conditions: Streptococcus crista NCTC 12479; 300 mg/l; 18 hours
[2] = test system: Streptococcus vestibularis; assay: Substrate hydrolysis on Columbia agar; conditions: Streptococcus vestibularis NCTC 12166; 300 mg/l; 18 hours
[3] = test system: Haemolytic streptococcus C; assay: Substrate hydrolysis on Columbia agar; conditions: 300 mg/l, 18 hours
Listeria seerigeri = assay: Substrate hydrolysis on Columbia agar; conditions: Listeria seerigeri PHLS wild; 300 mg/l; 18 hours
Listeria innocua = assay: Substrate hydrolysis on Columbia agar; conditions: Listeria innocua PHLS wild; 300 mg/l; 18 hours
Listeria ivanovii = assay: Substrate hydrolysis on Columbia agar; conditions: Listeria ivanovii PHLS wild; 300 mg/l; 18 hours
Bacillus licusniforms = assay: Substrate hydrolysis on Columbia agar; conditions: Bacillus licusniforms NCIMB 9375; 300 mg/l; 18 hours
Staphylococcus aureus = assay: Substrate hydrolysis on Columbia agar; conditions: 300 mg/l, 18 hours
Enterococcus mundtii = assay: Substrate hydrolysis on Columbia agar; conditions: Enterococcus mundtii NCTC 12363; 300 mg/l; 18 hours
Enterococcus durans = assay: Substrate hydrolysis on Columbia agar; conditions: Enterococcus durans NCTC 8307; 300 mg/l; 18 hours
Enterococcus gellinarum = assay: Substrate hydrolysis on Columbia agar; conditions: Enterococcus gellinarum NCTC 11428; 300 mg/l; 18 hours
Gram positive bacteria = assay: Substrate hydrolysis on Columbia agar, summary of screen; conditions: for Gram positive bacteria tested that hydrolysed the substrate: of 74 Gram positive bacteria tested, 300 mg/l, 18 hours
[4] = Shigella dysenteriae (type 2) NCTC 9952
[5] = Shigella dysenteriae (type 3) NCTC 9720
[6] = Shigella dysenteriae (type 4) NCTC 9759
[7] = Vibrio parahaemolyticus NCTC 10441
[8] = Vibrio parahaemolyticus NCTC 10884
[9] = Vibrio parahaemolyticus NCTC 10903
[10] = Vibrio parahaemolyticus NCTC 11344
[11] = Vibrio parahaemolyticus NCTC 12205
[12] = Haemolytic streptococcus C 67736
[13] = Haemolytic streptococcus C 68350

For “3′,4′-dihydroxyflavone-4′-β-D-glucopyranoside sodium salt [DHF-glucoside]”, the “Hydrolysis by Gram negative bacteria” value (Shigella dysenteriae; [4]) was “−”, the “Hydrolysis by Gram negative bacteria” value (Shigella dysenteriae; [5]) was “−” and the “Hydrolysis by Gram negative bacteria” value (Shigella dysenteriae; [6]) was “−”. The “Hydrolysis by Gram negative bacteria” value (Hafnia alvei; Hafnia alvei HAL 2) was “−”, the “Hydrolysis by Gram negative bacteria” value (Hafnia alvei; Hafnia alvei NCTC 8105) was “−” and the “Hydrolysis by Gram negative bacteria” value (C. freundii; C. freundii CFR 1) was “+”. For the same molecule, the “Hydrolysis by Gram negative bacteria” value (C. freundii; C. freundii CFR 2) was “−”, the “Hydrolysis by Gram negative bacteria” value (C. freundii; C. freundii CFR 3) was “−” and the “Hydrolysis by Gram negative bacteria” value (C. freundii; C. freundii CFR 4) was “+”. For the same molecule, the “Hydrolysis by Gram negative bacteria” value (C. freundii; C. freundii NCTC 9750) was “+”, the “Hydrolysis by Gram negative bacteria” value (Aeromonas caviae) was “++” and the “Hydrolysis by Gram negative bacteria” value (Salmonella orthmarchen) was “−”. The “Hydrolysis by Gram negative bacteria” value (Y. enterocolitica; Y. enterocolitica NCTC 10460) was “−”, the “Hydrolysis by Gram negative bacteria” value (Y. enterocolitica; Y. enterocolitica NCTC 11176) was “−” and the “Hydrolysis by Gram negative bacteria” value (Y. enterocolitica; Y. enterocolitica NCTC 11177) was “−”. The “Hydrolysis by Gram negative bacteria” value (Y. enterocolitica; Y. enterocolitica NCTC 11600) was “−”, the “Hydrolysis by Gram negative bacteria” value (A. lwoffii) was “−” and the “Hydrolysis by Gram negative bacteria” value (P. penneri) was “−”. The “Hydrolysis by Gram negative bacteria” value (Vibrio parahaemolyticus; [7]) was “−”, the “Hydrolysis by Gram negative bacteria” value (Vibrio parahaemolyticus; [8]) was “−” and the “Hydrolysis by Gram negative bacteria” value (Vibrio parahaemolyticus; [9]) was “−”. The “Hydrolysis by Gram negative bacteria” value (Vibrio parahaemolyticus; [10]) was “−”, the “Hydrolysis by Gram negative bacteria” value (Vibrio parahaemolyticus; [11]) was “−” and the “Hydrolysis by Gram negative bacteria” value (Vibrio furnissii) was “−”. For the same molecule, the “Hydrolysis by Gram negative bacteria” value (Vibrio hollisae) was “−”, the “Hydrolysis by Gram negative bacteria” value (Vibrio cincinnatiensis) was “+” and the “Hydrolysis by Gram negative bacteria” value (Vibrio harveyi) was “+”. The “Hydrolysis by Gram negative bacteria” value (Vibrio vulnificus; Vibrio vulnificus NCTC 11066) was “+”, the “Hydrolysis by Gram negative bacteria” value (Vibrio vulnificus; Vibrio vulnificus NCTC 11067) was “+” and the “Hydrolysis by Gram negative bacteria” value (Shigella sonnei; Shigella sonnei NCTC 8219) was “−”. For the same molecule, the “Hydrolysis by Gram negative bacteria” value (Shigella sonnei; Shigella sonnei NCTC 8574) was “−”, the “Hydrolysis by Gram negative bacteria” value (Shigella sonnei; Shigella sonnei NCTC 8586) was “−” and the “Hydrolysis by Gram negative bacteria” value (Shigella sonnei; Shigella sonnei NCTC 9774) was “−”. The “Hydrolysis by Gram negative bacteria” value (Shigella sonnei; Shigella sonnei NCTC 10352) was “−”, the “Hydrolysis by Gram negative bacteria” value (Vibrio mimicus) was “−” and the “Hydrolysis by Gram negative bacteria” value (Vibrio alcaligenes) was “−”. For the same molecule, the “Hydrolysis by Gram positive organisms” value (Streptococcus sanguis) was “−”, the “Hydrolysis by Gram positive organisms” value [1] was “−” and the “Hydrolysis by Gram positive organisms” value (Streptococcus mitis) was “−”. The “Hydrolysis by Gram positive organisms” value (Streptococcus crista) was “−”, the “Hydrolysis by Gram positive organisms” value [2] was “−” and the “Hydrolysis by Gram positive organisms” value ([3]; Haemolytic streptococcus C 1) was “−”. The “Hydrolysis by Gram positive organisms” value [3, 12] was “−”, the “Hydrolysis by Gram positive organisms” value [3, 13] was “−” and the “Hydrolysis by Gram positive organisms” value (Listeria seerigeri) was “++”. The “Hydrolysis by Gram positive organisms” value (Listeria innocua) was “++”, the “Hydrolysis by Gram positive organisms” value (Listeria ivanovii) was “++” and the “Hydrolysis by Gram positive organisms” value (Bacillus licusniforms) was “+”. The “Hydrolysis by Gram positive organisms” value (Staphylococcus aureus; Staphylococcus aureus 1) was “−”, the “Hydrolysis by Gram positive organisms” value (Staphylococcus aureus; Staphylococcus aureus 2) was “−” and the “Hydrolysis by Gram positive organisms” value (Staphylococcus aureus; Staphylococcus aureus 3) was “−”. The “Hydrolysis by Gram positive organisms” value (Staphylococcus aureus; Staphylococcus aureus 4) was “−”, the “Hydrolysis by Gram positive organisms” value (Staphylococcus aureus; Staphylococcus aureus 5) was “−” and the “Hydrolysis by Gram positive organisms” value (Enterococcus mundtii) was “++”. The “Hydrolysis by Gram positive organisms” value (Enterococcus durans) was “++”, the “Hydrolysis by Gram positive organisms” value (Enterococcus gellinarum) was “++” and the “colony colour and diffusion” value (Gram positive bacteria; Strains of Listeria and enterococci) was “intense black colonies with no diffusion of the black chelate”. The “Gram positive bacteria tested that hydrolysed the substrate” value (Gram positive bacteria) was 22.5%.
`O=c1cc(-c2ccc(OC3OC(CO)C(O)C3O)c(O)c2)oc2ccccc12` [DHF-riboside, 3′,4′-dihydroxyflavone-4′-β-D-ribofuranoside Sodium Salt] was tested, and the “Hydrolysis by Gram negative bacteria” value (Shigella dysenteriae; [4]) was “++”, the “Hydrolysis by Gram negative bacteria” value (Shigella dysenteriae; [5]) was “++” and the “Hydrolysis by Gram negative bacteria” value (Shigella dysenteriae; [6]) was “++”. The “Hydrolysis by Gram negative bacteria” value (Hafnia alvei; Hafnia alvei HAL 2) was “++”, the “Hydrolysis by Gram negative bacteria” value (Hafnia alvei; Hafnia alvei NCTC 8105) was “++” and the “Hydrolysis by Gram negative bacteria” value (C. freundii; C. freundii CFR 1) was “++”. The “Hydrolysis by Gram negative bacteria” value (C. freundii; C. freundii CFR 2) was “++”, the “Hydrolysis by Gram negative bacteria” value (C. freundii; C. freundii CFR 3) was “++” and the “Hydrolysis by Gram negative bacteria” value (C. freundii; C. freundii CFR 4) was “++”. For the same molecule, the “Hydrolysis by Gram negative bacteria” value (C. freundii; C. freundii NCTC 9750) was “++”, the “Hydrolysis by Gram negative bacteria” value (Aeromonas caviae) was “++” and the “Hydrolysis by Gram negative bacteria” value (Salmonella orthmarchen) was “++”. The “Hydrolysis by Gram negative bacteria” value (Y. enterocolitica; Y. enterocolitica NCTC 10460) was “−”, the “Hydrolysis by Gram negative bacteria” value (Y. enterocolitica; Y. enterocolitica NCTC 11176) was “−” and the “Hydrolysis by Gram negative bacteria” value (Y. enterocolitica; Y. enterocolitica NCTC 11177) was “−”. For the same molecule, the “Hydrolysis by Gram negative bacteria” value (Y. enterocolitica; Y. enterocolitica NCTC 11600) was “−”, the “Hydrolysis by Gram negative bacteria” value (A. lwoffii) was “−” and the “Hydrolysis by Gram negative bacteria” value (P. penneri) was “−”. The “Hydrolysis by Gram negative bacteria” value (Vibrio parahaemolyticus; [7]) was “−”, the “Hydrolysis by Gram negative bacteria” value (Vibrio parahaemolyticus; [8]) was “−” and the “Hydrolysis by Gram negative bacteria” value (Vibrio parahaemolyticus; [9]) was “−”. The “Hydrolysis by Gram negative bacteria” value (Vibrio parahaemolyticus; [10]) was “−”, the “Hydrolysis by Gram negative bacteria” value (Vibrio parahaemolyticus; [11]) was “−” and the “Hydrolysis by Gram negative bacteria” value (Vibrio furnissii) was “−”. The “Hydrolysis by Gram negative bacteria” value (Vibrio hollisae) was “−”, the “Hydrolysis by Gram negative bacteria” value (Vibrio cincinnatiensis) was “−” and the “Hydrolysis by Gram negative bacteria” value (Vibrio harveyi) was “++”. For the same molecule, the “Hydrolysis by Gram negative bacteria” value (Vibrio vulnificus; Vibrio vulnificus NCTC 11066) was “−”, the “Hydrolysis by Gram negative bacteria” value (Vibrio vulnificus; Vibrio vulnificus NCTC 11067) was “−” and the “Hydrolysis by Gram negative bacteria” value (Shigella sonnei; Shigella sonnei NCTC 8219) was “++”. The “Hydrolysis by Gram negative bacteria” value (Shigella sonnei; Shigella sonnei NCTC 8574) was “++”, the “Hydrolysis by Gram negative bacteria” value (Shigella sonnei; Shigella sonnei NCTC 8586) was “++” and the “Hydrolysis by Gram negative bacteria” value (Shigella sonnei; Shigella sonnei NCTC 9774) was “++”. The “Hydrolysis by Gram negative bacteria” value (Shigella sonnei; Shigella sonnei NCTC 10352) was “++”, the “Hydrolysis by Gram negative bacteria” value (Vibrio mimicus) was “−” and the “Hydrolysis by Gram negative bacteria” value (Vibrio alcaligenes) was “−”. The “Hydrolysis by Gram positive organisms” value (Streptococcus sanguis) was “−”, the “Hydrolysis by Gram positive organisms” value [1] was “−” and the “Hydrolysis by Gram positive organisms” value (Streptococcus mitis) was “−”. For the same molecule, the “Hydrolysis by Gram positive organisms” value (Streptococcus crista) was “−”, the “Hydrolysis by Gram positive organisms” value [2] was “−” and the “Hydrolysis by Gram positive organisms” value ([3]; Haemolytic streptococcus C 1) was “−”. For the same molecule, the “Hydrolysis by Gram positive organisms” value [3, 12] was “−”, the “Hydrolysis by Gram positive organisms” value [3, 13] was “−” and the “Hydrolysis by Gram positive organisms” value (Listeria seerigeri) was “−”. The “Hydrolysis by Gram positive organisms” value (Listeria innocua) was “−”, the “Hydrolysis by Gram positive organisms” value (Listeria ivanovii) was “+” and the “Hydrolysis by Gram positive organisms” value (Bacillus licusniforms) was “−”. For the same molecule, the “Hydrolysis by Gram positive organisms” value (Staphylococcus aureus; Staphylococcus aureus 1) was “++”, the “Hydrolysis by Gram positive organisms” value (Staphylococcus aureus; Staphylococcus aureus 2) was “++” and the “Hydrolysis by Gram positive organisms” value (Staphylococcus aureus; Staphylococcus aureus 3) was “++”. The “Hydrolysis by Gram positive organisms” value (Staphylococcus aureus; Staphylococcus aureus 4) was “++”, the “Hydrolysis by Gram positive organisms” value (Staphylococcus aureus; Staphylococcus aureus 5) was “++” and the “Hydrolysis by Gram positive organisms” value (Enterococcus mundtii) was “+”. For the same molecule, the “Hydrolysis by Gram positive organisms” value (Enterococcus durans) was “−”, the “Hydrolysis by Gram positive organisms” value (Enterococcus gellinarum) was “+” and the “Gram positive bacteria tested that hydrolysed the substrate” value (Gram positive bacteria) was 30.8%.
